Like-named read-outs stand apart in the source and are kept apart here.
Tests used:
[1] = biological target: T1, hAC1 (Homo sapiens, UniProt Q08828); experiment: Cyclic AMP accumulation (HTRF) in HEK cells stably expressing AC1, stimulated with A23187; type: cell-based; settings: for inhibition at 30 µM: HEK293; for Selectivity AC1 vs AC8: AC8 IC50/AC1 IC50, without AC8 IC50, estimate based on IC50 ≥30 μM
T1 construct: expressed in transfected cells
Method: The screen was carried out using HEK cells stably expressing AC1 (HEK-AC1) and cyclic AMP accumulation was stimulated using the Ca^2+ ionophore, A23187 to selectively activate AC1.
Both AC1 and AC8 are robustly activated by Ca^2+/CaM under a variety of conditions, whereas the effects of Ca^2+/CaM on AC3 are modest and conditional requiring activation by G proteins.
The primary technology we employed to measure cAMP accumulation was a homogenous time-resolved fluorescence (HTRF) assay, the same technology utilized in the primary screen. […]
(§1) Briefly, cryopreserved cells were thawed, resuspended in optiMEM (Life Technologies), and plated in white, flat bottom, low-volume, tissue culture-treated 384 well plates (PerkinElmer, Shelton, Conn.). Plates with cells were incubated in a 37° C. humidified incubator for 1 h. Inhibitors were added and plates were incubated at room temperature for 30 min followed by the addition of AC stimulants in the presence of 500 μM IBMX. Cells were incubated at room temperature for 1 h and cAMP accumulation was measured using Cisbio's cAMP kit (Cisbio Bioassays, Bedford, Mass.) according to the manufacturer's instructions.

[2] = biological target: T2, hAC8 (Homo sapiens, UniProt P40145); experiment: Cyclic AMP accumulation (HTRF) in HEK cells stably expressing AC8, stimulated with A23187; type: cell-based; settings: for inhibition at 30 µM: HEK293; for hAC8 % Inhib: at 30 μM, negative values indicate a potentiated response
T2 construct: expressed in transfected cells
T2 sequence (P40145 whole entry): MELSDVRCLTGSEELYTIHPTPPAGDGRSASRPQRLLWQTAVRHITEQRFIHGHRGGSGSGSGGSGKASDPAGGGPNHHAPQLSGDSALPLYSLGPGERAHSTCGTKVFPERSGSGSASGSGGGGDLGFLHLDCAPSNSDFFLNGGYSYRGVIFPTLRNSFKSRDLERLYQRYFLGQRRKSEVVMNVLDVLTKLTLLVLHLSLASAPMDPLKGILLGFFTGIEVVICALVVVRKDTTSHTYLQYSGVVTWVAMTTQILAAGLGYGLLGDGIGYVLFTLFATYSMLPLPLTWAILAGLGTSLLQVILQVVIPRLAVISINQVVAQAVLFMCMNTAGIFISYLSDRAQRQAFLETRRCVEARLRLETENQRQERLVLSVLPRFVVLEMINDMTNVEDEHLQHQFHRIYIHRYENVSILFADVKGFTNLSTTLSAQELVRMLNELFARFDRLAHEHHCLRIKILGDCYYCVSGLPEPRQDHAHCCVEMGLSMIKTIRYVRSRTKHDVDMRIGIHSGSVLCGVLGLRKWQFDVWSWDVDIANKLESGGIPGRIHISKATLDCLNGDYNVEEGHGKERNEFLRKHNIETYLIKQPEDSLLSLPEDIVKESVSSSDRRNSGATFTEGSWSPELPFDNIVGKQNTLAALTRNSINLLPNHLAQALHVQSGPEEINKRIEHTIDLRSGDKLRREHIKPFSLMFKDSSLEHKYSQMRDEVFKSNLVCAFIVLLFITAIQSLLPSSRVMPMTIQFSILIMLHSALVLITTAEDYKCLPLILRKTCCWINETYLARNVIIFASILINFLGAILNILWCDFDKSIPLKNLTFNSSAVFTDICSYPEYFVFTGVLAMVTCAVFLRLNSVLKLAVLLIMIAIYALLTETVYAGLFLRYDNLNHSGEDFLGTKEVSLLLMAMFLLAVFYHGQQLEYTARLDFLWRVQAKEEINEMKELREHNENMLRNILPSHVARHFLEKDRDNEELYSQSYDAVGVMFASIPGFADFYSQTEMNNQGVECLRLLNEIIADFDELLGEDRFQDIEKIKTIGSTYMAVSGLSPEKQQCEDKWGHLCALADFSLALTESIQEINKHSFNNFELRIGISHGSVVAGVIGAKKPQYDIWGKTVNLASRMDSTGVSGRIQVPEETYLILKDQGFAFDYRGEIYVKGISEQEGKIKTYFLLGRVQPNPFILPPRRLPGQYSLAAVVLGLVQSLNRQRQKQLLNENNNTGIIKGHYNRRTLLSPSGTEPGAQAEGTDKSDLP
Method: Fresh powders of several robust inhibitors (>90% inhibition) were evaluated in multiple confirmation assays assessing the dose response relationship for inhibiting AC1 and AC8 activity. Confirmation assays used A23817 to selectively stimulate recombinant AC1 or AC8 in the HEK cell background (Cumbay and Watts (2001), J. Pharmacol Exp Ther 297:1201-1399). This approach takes advantage of one unique regulatory property of AC1 for the development of selective inhibitors. Both AC1 and AC8 are robustly activated by Ca^2+/CaM under a variety of conditions, whereas the effects of Ca^2+/CaM on AC3 are modest and conditional requiring activation by G proteins. Previous studies have identified unique Ca^2+/CaM binding domains as one possible site of interaction to achieve AC1 (vs. AC8) selectivity (Masada et al., 2012, Biochemistry 51:7917-7929).
The primary technology we employed to measure cAMP accumulation was a homogenous time-resolved fluorescence (HTRF) assay, the same technology utilized in the primary screen.
Human embryonic kidney (HEK) cells stably expressing AC1, AC8, or AC1 with the MOR were cultured in Dulbecco's Modified Eagle Medium (Life Technologies, Grand Island, N.Y.) supplemented with 5% bovine calf serum (Hyclone, Logan, Utah), 5% fetal clone I (Hyclone), Antibiotic-Antimycotic (Life Technologies), and G418 (Invivogen, San Diego, Calif.) (HEK-AC1), or hygromycin B (Fisher Scientific, Pittsburgh, Pa.) (HEK-AC8), or G418 and puromycin (Sigma-Aldrich) (HEK-AC1/MOR). Chinese hamster ovary (CHO) cells expressing the MOR (CHO-MOR) in the PathHunter® β-Arrestin GPCR assay platform were purchased from DiscoveRx (Freemont, Calif.). Cells were grown in Ham's F12 media supplemented with 1 mM L-glutamine (Thermo Scientific, West Palm Beach, Fla.), 10% fetal bovine serum (Hyclone), 50 Um′ penicillin, 50 μg/ml streptomycin (Life Technologies), G418 and hygromycin B. Cells were grown and frozen as previously described (J. M. Conley, et al., J Vis Exp, e51218 (2014)).
as §1, with “Cyclic AMP accumulation was measured as previously described (Brust, et al., J. Pharmacol. Exp. Ther. 352, 480-493(2015)). Briefly,” for “Briefly,”

[3] = test system: HEK-AC1 cells
Method: Cell viability assays were conducted with HEK-AC1 cells following plating and compound incubation protocols identical to the procedures described above in “Cyclic AMP assays in cells”. Cell viability was measured as a percentage of vehicle using 2% Triton X-100 (Sigma-Aldrich) as a control. The CellTiter-Glo® Luminescent Cell Viability Assay kit from Promega (Madison, Wis.) was employed to assess cell viability according to the manufacturer's instructions. Luminescence counts were measured using a Synergy 4.

[4] = biological target: T3, hAC2 (Homo sapiens, UniProt Q08462); experiment: Cyclic AMP accumulation in stable HEK-AC2 cells, stimulated with 100 nM PMA; type: cell-based; settings: Table 1, at 30 μM, negative = potentiated, n = 2
T3 construct: expressed in transfected cells
T3 sequence (Q08462 whole entry): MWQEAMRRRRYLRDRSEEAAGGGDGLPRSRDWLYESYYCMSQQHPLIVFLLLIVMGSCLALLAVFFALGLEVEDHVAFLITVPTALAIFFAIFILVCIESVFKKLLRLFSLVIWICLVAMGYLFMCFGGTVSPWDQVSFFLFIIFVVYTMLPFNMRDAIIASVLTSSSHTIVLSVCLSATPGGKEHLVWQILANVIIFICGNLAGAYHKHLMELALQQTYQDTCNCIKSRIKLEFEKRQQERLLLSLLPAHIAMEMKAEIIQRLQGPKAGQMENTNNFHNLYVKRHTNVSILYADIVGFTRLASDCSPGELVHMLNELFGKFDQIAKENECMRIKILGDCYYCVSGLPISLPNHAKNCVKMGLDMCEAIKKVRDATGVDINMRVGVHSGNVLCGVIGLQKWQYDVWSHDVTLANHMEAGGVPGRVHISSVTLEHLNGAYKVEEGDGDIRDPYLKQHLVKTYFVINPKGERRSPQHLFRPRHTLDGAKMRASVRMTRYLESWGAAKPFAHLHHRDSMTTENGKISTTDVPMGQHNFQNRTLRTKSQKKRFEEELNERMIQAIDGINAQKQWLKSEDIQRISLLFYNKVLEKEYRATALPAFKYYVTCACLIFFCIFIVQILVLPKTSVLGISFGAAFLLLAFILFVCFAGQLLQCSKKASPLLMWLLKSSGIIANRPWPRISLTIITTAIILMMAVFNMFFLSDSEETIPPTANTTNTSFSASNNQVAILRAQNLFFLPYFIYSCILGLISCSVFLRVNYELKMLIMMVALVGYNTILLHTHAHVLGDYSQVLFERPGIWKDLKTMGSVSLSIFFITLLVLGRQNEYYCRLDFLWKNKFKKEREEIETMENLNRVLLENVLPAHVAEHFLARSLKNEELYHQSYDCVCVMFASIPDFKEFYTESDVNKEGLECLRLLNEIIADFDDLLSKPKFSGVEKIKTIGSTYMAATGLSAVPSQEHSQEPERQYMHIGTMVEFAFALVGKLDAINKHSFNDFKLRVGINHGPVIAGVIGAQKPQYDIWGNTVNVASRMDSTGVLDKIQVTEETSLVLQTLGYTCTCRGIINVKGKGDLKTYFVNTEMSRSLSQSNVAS
Method: as §1, with “Cyclic AMP accumulation was measured as previously described (Brust, et al., J. Pharmacol. Exp. Ther. 352, 480-493(2015)). Briefly,” for “Briefly,”

[5] = biological target: T4, hAC5 (Homo sapiens, UniProt O95622); experiment: Cyclic AMP accumulation in stable HEK-AC5 cells, stimulated with 300 nM forskolin; type: cell-based; settings: Table 1, at 30 μM, negative = potentiated, n = 2
T4 construct: expressed in transfected cells
T4 sequence (O95622 whole entry): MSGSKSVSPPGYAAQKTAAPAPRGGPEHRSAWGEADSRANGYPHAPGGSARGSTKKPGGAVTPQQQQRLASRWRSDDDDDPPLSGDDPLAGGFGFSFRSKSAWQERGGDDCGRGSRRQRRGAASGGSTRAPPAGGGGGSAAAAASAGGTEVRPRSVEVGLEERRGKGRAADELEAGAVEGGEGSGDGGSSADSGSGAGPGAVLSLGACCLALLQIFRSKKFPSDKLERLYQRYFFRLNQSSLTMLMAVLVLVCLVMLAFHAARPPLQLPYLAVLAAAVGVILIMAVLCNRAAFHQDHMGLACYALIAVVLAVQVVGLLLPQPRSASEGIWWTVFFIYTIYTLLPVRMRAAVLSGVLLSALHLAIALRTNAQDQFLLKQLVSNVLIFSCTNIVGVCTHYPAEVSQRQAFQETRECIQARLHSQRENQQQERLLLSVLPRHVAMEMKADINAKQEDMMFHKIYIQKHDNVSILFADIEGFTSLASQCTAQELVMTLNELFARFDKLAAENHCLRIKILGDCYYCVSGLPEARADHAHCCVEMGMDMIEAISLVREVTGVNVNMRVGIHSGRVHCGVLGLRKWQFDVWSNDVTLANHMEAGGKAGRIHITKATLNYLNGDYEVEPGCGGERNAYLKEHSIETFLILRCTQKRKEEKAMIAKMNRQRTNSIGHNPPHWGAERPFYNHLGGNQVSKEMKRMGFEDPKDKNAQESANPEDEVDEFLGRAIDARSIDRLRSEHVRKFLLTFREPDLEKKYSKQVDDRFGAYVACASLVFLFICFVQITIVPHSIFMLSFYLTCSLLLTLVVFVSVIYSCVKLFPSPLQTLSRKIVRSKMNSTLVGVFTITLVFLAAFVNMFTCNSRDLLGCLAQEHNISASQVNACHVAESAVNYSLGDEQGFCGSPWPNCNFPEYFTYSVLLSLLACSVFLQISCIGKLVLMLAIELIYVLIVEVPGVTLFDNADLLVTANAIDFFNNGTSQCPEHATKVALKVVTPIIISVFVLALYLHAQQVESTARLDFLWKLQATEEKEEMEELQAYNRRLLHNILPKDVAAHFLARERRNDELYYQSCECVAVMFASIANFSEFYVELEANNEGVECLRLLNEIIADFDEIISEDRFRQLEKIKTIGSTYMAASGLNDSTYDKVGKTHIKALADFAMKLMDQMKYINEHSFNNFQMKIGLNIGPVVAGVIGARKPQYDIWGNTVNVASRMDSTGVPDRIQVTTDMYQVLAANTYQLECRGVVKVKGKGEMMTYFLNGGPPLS
Method: as §1, with “Cyclic AMP accumulation was measured as previously described (Brust, et al., J. Pharmacol. Exp. Ther. 352, 480-493(2015)). Briefly,” for “Briefly,”

[6] = test system: chronic pain responses; settings: mice; literature; cited from earlier work
[7] = test system: chronic pain responses; settings: rats; literature; cited from earlier work
[8] = Table 2, read-out: HEK-AC1 IC50
[9] = Table 1, stable HEK cells, A23187-stimulated cAMP, n ≥ 3
[10] = Table 1, stable HEK cells, A23187-stimulated cAMP, n ≥ 3, read-out: hAC1 IC50
[11] = Table 1, stable HEK cells, A23187-stimulated cAMP, n ≥ 3, read-out: hAC8 IC50

T1 sequence (Q08828 whole entry): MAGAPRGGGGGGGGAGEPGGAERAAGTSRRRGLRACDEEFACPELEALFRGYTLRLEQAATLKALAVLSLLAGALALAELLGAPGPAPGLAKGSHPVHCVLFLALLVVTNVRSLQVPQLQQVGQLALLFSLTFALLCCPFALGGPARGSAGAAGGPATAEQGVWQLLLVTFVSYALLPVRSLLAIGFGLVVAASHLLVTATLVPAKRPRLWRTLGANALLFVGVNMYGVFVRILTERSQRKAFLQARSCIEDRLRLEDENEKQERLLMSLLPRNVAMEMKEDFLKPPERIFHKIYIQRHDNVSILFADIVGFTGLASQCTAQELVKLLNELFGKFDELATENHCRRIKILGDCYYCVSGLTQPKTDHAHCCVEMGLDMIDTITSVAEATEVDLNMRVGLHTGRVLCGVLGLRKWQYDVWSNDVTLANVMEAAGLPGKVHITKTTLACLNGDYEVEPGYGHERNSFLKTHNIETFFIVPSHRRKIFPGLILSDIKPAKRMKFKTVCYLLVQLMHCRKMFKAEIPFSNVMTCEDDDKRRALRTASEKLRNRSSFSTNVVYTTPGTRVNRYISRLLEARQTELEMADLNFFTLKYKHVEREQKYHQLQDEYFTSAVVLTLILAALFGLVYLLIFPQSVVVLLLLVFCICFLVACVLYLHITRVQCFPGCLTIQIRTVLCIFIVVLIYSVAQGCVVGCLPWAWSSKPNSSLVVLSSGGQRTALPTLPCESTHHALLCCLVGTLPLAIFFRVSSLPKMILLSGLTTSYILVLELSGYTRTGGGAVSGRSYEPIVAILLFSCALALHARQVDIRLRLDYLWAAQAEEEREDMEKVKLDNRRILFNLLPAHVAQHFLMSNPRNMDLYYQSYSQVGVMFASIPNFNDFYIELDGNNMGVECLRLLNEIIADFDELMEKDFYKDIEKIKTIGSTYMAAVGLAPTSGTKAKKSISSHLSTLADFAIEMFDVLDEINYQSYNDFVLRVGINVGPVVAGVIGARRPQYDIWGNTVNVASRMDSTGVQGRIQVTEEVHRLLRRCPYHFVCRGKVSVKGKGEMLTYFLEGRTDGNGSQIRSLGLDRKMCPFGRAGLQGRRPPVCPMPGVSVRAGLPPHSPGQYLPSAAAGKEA

Structure (SMILES)	inhibition at 30 µM ([1]; Table 2)	IC50 [1, 8]	inhibition at 30 µM ([2]; Table 2)	Selectivity AC1 vs AC8 [1]	hAC1 % Inhib [1, 9]	IC50 [1, 10]	Viability % Veh [3]	hAC2 % Inhib [4]	hAC8 % Inhib ([2]; Table 1)	hAC5 % Inhib [5]	also measured
Cc1cc(NC(=O)C2CC2)n(-c2nc(=O)cc(C)[nH]2)n1 [AC10051, N-(3-methyl-1-(6-methyl-4-oxo-1,4-dihydropyrimidin-2-yl)-1H-pyrazol-5-yl)cyclopropanecarboxamide]	4 ± 7%										
CCc1cc(=O)nc(-n2nc(C)cc2NC(=O)c2cccc(F)c2)[nH]1 [AC10049, N-(1-(6-ethyl-4-oxo-1,4-dihydropyrimidin-2-yl)-3-methyl-1H-pyrazol-5-yl)-3-fluorobenzamide]	98 ± 1%	1300 ± 200 nM	26 ± 4%								IC50 ([2]; Table 2, read-out: HEK-AC8 IC50): 68 ± 10 µM
O=C(Nc1nnc(-c2ccc3c(c2)OCCO3)o1)c1ccc(Br)cc1 [Compound F0608-0011]				9-fold	101 ± 1%	2000 ± 200 nM	125 ± 3 % Veh	−7%	79 ± 1%	−10%	IC50 [2, 11]: 18 ± 2 µM
Cc1cc(NC(=O)c2ccco2)n(-c2nc(=O)cc(C)[nH]2)n1 [AC10043, N-(3-methyl-1-(6-methyl-4-oxo-1,4-dihydropyrimidin-2-yl)-1H-pyrazol-5-yl)furan-2-carboxamide]	92 ± 2%	10300 ± 2000 nM	16 ± 9%								
CCc1cc(=O)nc(-n2nc(C)cc2NC(=O)C2CC2)[nH]1 [AC10050, N-(1-(6-ethyl-4-oxo-1,4-dihydropyrimidin-2-yl)-3-methyl-1H-pyrazol-5-yl)cyclopropanecarboxamide]	79 ± 4%	16700 ± 1000 nM									
Cc1cc(NC(=O)c2cccc(F)c2)n(-c2nc(=O)cc(C)[nH]2)n1 [AC10057, 3-fluoro-N-(3-methyl-1-(6-methyl-4-oxo-1,4-dihydropyrimidin-2-yl)-1H-pyrazol-5-yl)benzamide]	94 ± 1%	3700 ± 200 nM	9 ± 2%								
CCc1cc(=O)nc(-n2nc(C)cc2NC(=O)c2ccc(Cl)cc2)[nH]1 [AC10058, 4-chloro-N-(1-(6-ethyl-4-oxo-1,4-dihydropyrimidin-2-yl)-3-methyl-1H-pyrazol-5-yl)benzamide]	99 ± 1%	1200 ± 200 nM	19 ± 4%								
Cc1cc(NC(=O)c2ccccc2F)n(-c2nc(=O)cc(C)[nH]2)n1 [AC10042, 2-Fluoro-N-(3-methyl-1-(6-methyl-4-oxo-1,4-dihydropyrimidin-2-yl)-1H-pyrazol-5-yl)benzamide]	101 ± 0.7%	1500 ± 300 nM	9 ± 4%								
CSc1ccccc1C(=O)Nc1cc(C)nn1-c1nc2c(c(=O)[nH]1)CCC2 [Compound F2215-0954]				>5-fold	99 ± 1%	5900 ± 400 nM	106 ± 14 % Veh	−185%	35 ± 8%	−21%	
CCc1c(C)nc(-n2nc(C)cc2NC(=O)c2ccco2)[nH]c1=O [Compound F2215-0772]				>30-fold	100 ± 1%	900 ± 200 nM	93 ± 1 % Veh	32%	34 ± 7%	13%	
Nc1ncnc2c1ncn2CCNCCCCCO [NB001]											chronic pain responses (inflammatory and neuropathic) [6]: markedly attenuated chronic pain responses; chronic pain responses (inflammatory and neuropathic) [7]: markedly attenuated chronic pain responses
CCc1cc(=O)nc(-n2nc(C)cc2NC(=O)c2ccccc2F)[nH]1 [AC10048, N-(1-(6-ethyl-4-oxo-1,4-dihydropyrimidin-2-yl)-3-methyl-1H-pyrazol-5-yl)-2-fluorobenzamide]	99 ± 2%	580 ± 200 nM	19 ± 11%								
CC1CC(C)CN(S(=O)(=O)c2ccc(C(=O)Nc3nnc(-c4cccs4)o3)cc2)C1 (stereo not drawn) [Compound F0559-0346]				2-fold	99 ± 1%	9100 ± 2000 nM	118 ± 2 % Veh	−6%	74 ± 13%	4%	IC50 [2, 11]: 17 ± 6 µM
CCc1cc(=O)[nH]c(-n2nc(C)cc2NC(=O)c2ccccc2F)n1 [Compound F2215-0213]					99 ± 1%	500 ± 100 nM	101 ± 17 % Veh	−70%	20 ± 1%	9%	
O=C(Nc1nnc(-c2ccc3c(c2)CCCC3)o1)c1ccccc1 [Compound F0608-0538]				10-fold	101 ± 1%	2100 ± 400 nM	118 ± 6 % Veh	−95%	76 ± 8%	−34%	IC50 [2, 11]: 21 ± 4 µM
CSc1cccc(C(=O)Nc2nnc(C3CCCCC3)o2)c1 [Compound F2289-0107]				>4-fold	99 ± 1%	7500 ± 2000 nM	117 ± 1 % Veh	−210%	31 ± 2%	−28%	

Reference: patent US11667623B2, “Scaffold of adenylyl cyclase inhibitors for chronic pain and opioid dependence” (Purdue Research Foundation, priority 2017, dated 2023)
